No end group written: not given here.
Assays:
Ku = details: fluorescence polarization with labelled peptides; cited from earlier work
Ku80 = details: yeast two-hybrid experiments or EMSA; cited from earlier work
[1] = test system: DSBs sites in XLF-defective BuS cells; test: Live cell recruitment of CFP-XLF to laser sites, BuS cells; assay type: cell-based, human; details: for Recruitment to laser-irradiated sites, full-length XLF: CFP-XLF in BuS cells, n=20 cells, WT vs L297W p=0.0093, WT vs L297E p<0.0001
[2] = biological target: KuFL (full length Ku70/Ku80) (Homo sapiens, UniProt P12956+P13010); test: ITC, ligand into KuFL; assay type: binding; details: 25°C, pH 8.0, KuFL in cell, line 9 deduced from the first injection point
KuFL (full length Ku70/Ku80), sequence (P13010 whole entry): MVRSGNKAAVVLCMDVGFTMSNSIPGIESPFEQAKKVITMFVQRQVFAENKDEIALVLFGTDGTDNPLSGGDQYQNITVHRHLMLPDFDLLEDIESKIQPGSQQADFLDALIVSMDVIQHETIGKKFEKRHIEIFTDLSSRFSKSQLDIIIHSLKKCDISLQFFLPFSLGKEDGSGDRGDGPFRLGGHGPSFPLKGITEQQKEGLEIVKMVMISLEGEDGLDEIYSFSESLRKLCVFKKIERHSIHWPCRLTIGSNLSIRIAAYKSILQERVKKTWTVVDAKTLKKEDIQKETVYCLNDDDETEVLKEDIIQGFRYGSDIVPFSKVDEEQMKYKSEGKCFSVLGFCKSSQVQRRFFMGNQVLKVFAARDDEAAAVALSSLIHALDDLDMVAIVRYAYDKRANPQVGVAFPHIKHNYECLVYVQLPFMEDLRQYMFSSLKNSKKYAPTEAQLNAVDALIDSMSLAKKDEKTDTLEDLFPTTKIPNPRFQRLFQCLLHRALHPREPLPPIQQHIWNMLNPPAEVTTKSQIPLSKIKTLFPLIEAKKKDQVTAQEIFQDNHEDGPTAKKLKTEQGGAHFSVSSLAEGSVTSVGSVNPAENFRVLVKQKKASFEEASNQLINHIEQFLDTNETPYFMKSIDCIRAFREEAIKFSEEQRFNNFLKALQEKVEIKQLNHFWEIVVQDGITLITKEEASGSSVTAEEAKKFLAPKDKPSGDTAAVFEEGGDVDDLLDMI
KuFL (full length Ku70/Ku80), sequence (P12956 whole entry): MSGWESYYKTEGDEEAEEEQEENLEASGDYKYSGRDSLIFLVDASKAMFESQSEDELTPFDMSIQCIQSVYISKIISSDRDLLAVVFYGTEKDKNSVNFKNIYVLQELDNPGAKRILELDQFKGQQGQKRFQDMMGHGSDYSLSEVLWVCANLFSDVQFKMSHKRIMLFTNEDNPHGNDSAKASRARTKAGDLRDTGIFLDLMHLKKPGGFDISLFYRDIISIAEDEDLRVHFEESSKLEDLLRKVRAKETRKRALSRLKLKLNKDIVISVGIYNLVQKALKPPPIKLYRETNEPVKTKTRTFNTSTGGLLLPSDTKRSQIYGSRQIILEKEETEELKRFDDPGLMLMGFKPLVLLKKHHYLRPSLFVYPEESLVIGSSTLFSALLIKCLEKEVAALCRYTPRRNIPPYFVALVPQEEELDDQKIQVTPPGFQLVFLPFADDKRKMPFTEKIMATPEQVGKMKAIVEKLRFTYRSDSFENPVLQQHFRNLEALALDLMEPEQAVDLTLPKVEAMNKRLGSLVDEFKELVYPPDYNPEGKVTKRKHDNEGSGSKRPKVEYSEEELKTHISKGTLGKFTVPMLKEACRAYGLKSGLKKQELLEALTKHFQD

[3] = biological target: Ku70cc;Ku80cc;pXLF (long X-KBM peptide) (human?;human?;human?, UniProt P12956;P13010;Q9H9Q4 1-544;1-551;281-299, ||); test: X-ray crystallography 2.8 A
Ku70cc;Ku80cc;pXLF (long X-KBM peptide), sequence (P12956 1-544, chain 1 of 2): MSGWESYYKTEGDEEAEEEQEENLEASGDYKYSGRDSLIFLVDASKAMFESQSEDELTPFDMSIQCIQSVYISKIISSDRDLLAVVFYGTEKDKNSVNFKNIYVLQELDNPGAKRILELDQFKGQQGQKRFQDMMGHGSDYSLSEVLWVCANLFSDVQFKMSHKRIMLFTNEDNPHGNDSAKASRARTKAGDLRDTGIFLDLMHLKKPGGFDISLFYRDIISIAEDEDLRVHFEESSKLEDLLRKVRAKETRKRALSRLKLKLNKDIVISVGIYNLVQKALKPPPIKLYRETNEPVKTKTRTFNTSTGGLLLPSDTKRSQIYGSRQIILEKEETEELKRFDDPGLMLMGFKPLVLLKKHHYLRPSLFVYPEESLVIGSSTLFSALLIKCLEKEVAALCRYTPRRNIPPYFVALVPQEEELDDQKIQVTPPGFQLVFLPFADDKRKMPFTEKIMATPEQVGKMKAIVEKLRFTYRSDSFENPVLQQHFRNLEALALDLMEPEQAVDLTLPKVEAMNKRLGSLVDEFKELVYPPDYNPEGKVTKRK
Ku70cc;Ku80cc;pXLF (long X-KBM peptide), sequence (P13010 1-551, chain 2 of 2): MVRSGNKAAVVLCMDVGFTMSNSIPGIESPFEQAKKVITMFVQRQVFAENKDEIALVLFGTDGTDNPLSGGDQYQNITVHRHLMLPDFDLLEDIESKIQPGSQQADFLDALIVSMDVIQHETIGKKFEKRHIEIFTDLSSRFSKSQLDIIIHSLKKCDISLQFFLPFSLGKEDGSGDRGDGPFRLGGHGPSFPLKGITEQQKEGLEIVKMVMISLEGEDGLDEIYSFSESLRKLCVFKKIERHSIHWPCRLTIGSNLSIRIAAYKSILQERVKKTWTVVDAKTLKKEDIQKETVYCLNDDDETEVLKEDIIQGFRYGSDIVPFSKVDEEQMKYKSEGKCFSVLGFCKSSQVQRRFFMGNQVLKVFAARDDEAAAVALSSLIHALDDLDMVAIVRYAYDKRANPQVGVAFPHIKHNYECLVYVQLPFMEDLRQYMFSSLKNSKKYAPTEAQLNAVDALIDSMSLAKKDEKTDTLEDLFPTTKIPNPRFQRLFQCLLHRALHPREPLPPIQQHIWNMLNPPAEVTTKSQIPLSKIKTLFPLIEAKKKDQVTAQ

[4] = biological target: Ku70cc;Ku80cc;pAPLF (A-KBM peptide) (human?;human?;human?, UniProt P12956;P13010;Q8IW19 1-544;1-551;174-191, ||); test: X-ray crystallography 3.0 A
Ku70cc;Ku80cc;pAPLF (A-KBM peptide), sequence (P12956 1-544, chain 1 of 2): as the sequence (P12956 1-544, chain 1 of 2) above
Ku70cc;Ku80cc;pAPLF (A-KBM peptide), sequence (P13010 1-551, chain 2 of 2): as the sequence (P13010 1-551, chain 2 of 2) above

[5] = biological target: Ku70cc;Ku80cc;pXLFs (short X-KBM peptide) (human?;human?;human?, UniProt P12956;P13010;Q9H9Q4 1-544;1-551;287-299, ||); test: X-ray crystallography 2.9 A
Ku70cc;Ku80cc;pXLFs (short X-KBM peptide), sequence (P12956 1-544, chain 1 of 2): as the sequence (P12956 1-544, chain 1 of 2) above
Ku70cc;Ku80cc;pXLFs (short X-KBM peptide), sequence (P13010 1-551, chain 2 of 2): as the sequence (P13010 1-551, chain 2 of 2) above

[6] = biological target: T1, Ku70 full length;Ku80 full length (human?;human?, UniProt P12956;P13010 1-609;1-732, |); test: switchSENSE
T1 sequence (P12956 whole entry, chain 1 of 2): as the sequence (P12956 whole entry) above
T1 sequence (P13010 whole entry, chain 2 of 2): as the sequence (P13010 whole entry) above

[7] = biological target: Ku70 full length;Ku80 full length;XLF full length (human?;human?;human?, UniProt P12956;P13010;Q9H9Q4 1-609;1-732;1-299, ||); test: EMSA
Ku70 full length;Ku80 full length;XLF full length, sequence (P12956 whole entry, chain 1 of 3): as the sequence (P12956 whole entry) above
Ku70 full length;Ku80 full length;XLF full length, sequence (P13010 whole entry, chain 2 of 3): as the sequence (P13010 whole entry) above
Ku70 full length;Ku80 full length;XLF full length, sequence (Q9H9Q4 whole entry, chain 3 of 3): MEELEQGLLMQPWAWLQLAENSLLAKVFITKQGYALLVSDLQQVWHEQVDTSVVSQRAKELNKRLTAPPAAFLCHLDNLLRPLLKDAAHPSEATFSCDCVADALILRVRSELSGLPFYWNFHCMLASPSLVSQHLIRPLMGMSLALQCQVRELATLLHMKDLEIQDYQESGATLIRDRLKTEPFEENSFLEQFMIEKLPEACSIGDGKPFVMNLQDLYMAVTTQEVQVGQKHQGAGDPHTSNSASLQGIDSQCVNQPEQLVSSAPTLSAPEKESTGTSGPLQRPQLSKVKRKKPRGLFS

[8] = biological target: T1, Ku70 full length;Ku80 full length; test: ITC

**Q.** With CC(C)C[C@H](NC(=O)CNC(=O)[C@H](CCCNC(=N)N)NC(=O)[C@@H]1CCCN1C(=O)[C@H](CCCCN)NC(=O)[C@H](CCCCN)NC(=O)[C@H](CCCNC(=N)N)NC(=O)[C@H](CCCCN)NC(=O)[C@@H](NC(=O)[C@H](CCCCN)NC(=O)[C@H](CO)NC(=O)[C@H](CC(C)C)NC(=O)[C@H](CCC(N)=O)NC(=O)[C@@H]1CCCN1C(=O)[C@H](CCCNC(=N)N)NC(=O)[C@H](CCC(N)=O)NC(=O)[C@@H](N)CC(C)C)C(C)C)C(=O)N[C@@H](Cc1ccccc1)C(=O)N[C@@H](CO)C(=O)O [pXLF] as the molecule, how does the Interaction detected (Ku) read?
**A.** The Interaction detected was “not detected”.

**Q.** For APLF: APTX and PNKP-like factor, which “Effect of Ku80 mutations at L68, Y74, I112 on interaction with APLF” value (Ku80) is on record?
**A.** Its value is “greatly reduce or disrupt the interactions”.

**Q.** For “F298G: XLF mutant in the extreme C-terminus”, which “Recruitment to laser-irradiated sites, full-length XLF” value (“Recruitment to laser-irradiated sites” below) [1] is on record?
**A.** Its value is “important reduction of the recruitment”.

**Q.** For “G296W: XLF mutant in the extreme C-terminus”, which “Recruitment to laser-irradiated sites” value [1] is on record?
**A.** Its value is “important reduction of the recruitment”.

**Q.** Which results are given for “L115D XLF: XLF mutant unable to interact with XRCC4”?
**A.** Recruitment to laser-irradiated sites, full-length XLF [1]: efficient recruitment; Effect of APLF knock-down on XLF recruitment ([1]; CFP-XLF, APLF knock-down): insensitive to APLF knock-down

**Q.** With LQRPQLSKVKRKKPRGWFS [pXLF(LW)] as the molecule, how does the ΔH [2] read?
**A.** Its ΔH is -12.1 ± 2.0 kcal/M.

**Q.** With “S299E: XLF mutant in the extreme C-terminus” as the molecule, how does the “Recruitment to laser-irradiated sites” value [1] read?
**A.** The value was “important reduction of the recruitment”.

**Q.** Which “Recruitment to laser-irradiated sites” value [1] does the source give for “XLF L115D/L297E: XLF L115D/L297E double mutant” here?
**A.** Its value is “impaired”.

B1: hDNA (CN1/CN2 hairpin DNA) (structured_DNA)
DNA 1: CGCGCCCAGCTTTCCCAGCTAATAAACTAAAAAC
DNA 2: GTTTTTAGTTTATTGGGCGCG
**Q.** Does B1 bind [3]?
**A.** Result: binds

**Q.** Does B1 bind [4]?
**A.** Result: binds

**Q.** Does B1 bind [5]?
**A.** Result: binds

B2: 48bp DNA nanolever (NLB48) (dsDNA)
DNA 1: TAGTCGTAAGCTGATATGGCTGATTAGTCGGAAGCATCGAACGCTGAT
DNA 2: ATCAGCGTTCGATGCTTCCGACTAATCAGCCATATCAGCTTACGACTA
**Q.** Does B2 bind [6]?
**A.** Result: binds

B3: 50bp DNA (MM 50bp up/do) (dsDNA)
DNA 1: TAAATGCCAATGCTGCTGATACGTACTCGGACTGATTCGGAACTGTAACG
DNA 2: CGTTACAGTTCCGAATCAGTCCGAGTACGTATCAGCAGCATTGGCATTTA
**Q.** Does B3 bind [7]?
**A.** Result: binds

B4: DNA 18bp (CN3/CN4) (dsDNA)
DNA 1: GTTATCCGAGCGTGAGAC
DNA 2: GTCTCACGCTCGGATAAC
**Q.** For B4, which Kd [8] is on record?
**A.** Its Kd is 4.1 ± 0.7 nM.

From paper PMC6234012 (Nature structural & molecular biology, 2018)
